Laboratory results published in the supplement of paper PMC10331698.
± gives the standard deviation of the averaged measurements.

Assays:
Experiment in all cases: level (log10 ratio to DMSO vehicle control); higher = higher biomarker level / cell amount than vehicle control
[1] = compound: OCCC(F)(F)C(F)(F)C(F)(F)C(F)(F)C(F)(F)C(F)(F)C(F)(F)C(F)(F)F [8:2 Fluorotelomer alcohol]; settings: 6700 nM; in DMSO
Method: (§1)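 BioMAP Diversity Plus panel of 12 human primary cell co-culture systems (3C, 4H, LPS, SAg, BT, BF4T, BE3C, CASM3C, HDF3CGF, KF3CT, MyoF, Mphg). Compounds were added 1 h before stimulation and left for 24 h (MyoF 48 h; BT 72 h for soluble read-outs or 6 d for IgG). Biomarkers were read by ELISA, cytotoxicity by SRB, PBMC viability and proliferation by Alamar Blue. Each well value was divided by the mean of 8 DMSO control wells on the same plate and log10 transformed; duplicate blinded samples were tested at 4 concentrations.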

Tetrafluorosuccinic acid = compound: O=C(O)C(F)(F)C(F)(F)C(=O)O [Tetrafluorosuccinic acid]; settings: in DMSO
Method: as §1

[2] = compound: O=C(CC(=O)C(F)(F)C(F)(F)C(F)(F)F)c1cccs1 [(Perfluorobutyryl)-2-thenoylmethane]; settings: in DMSO
Method: as §1

[3] = compound: O=C(Cl)C(F)(F)C(F)(F)C(F)(F)C(=O)Cl [Hexafluoroglutaryl chloride]; settings: in DMSO
Method: as §1

[4] = compound: OCCCC(F)(F)C(F)(F)C(F)(F)C(F)(F)C(F)(F)C(F)(F)C(F)(F)C(F)(F)F [3-(Perfluorooctyl)propanol]; settings: 6700 nM; in DMSO
Method: as §1

[5] = compound: OCC(F)(F)C(F)(F)C(F)(F)C(F)(F)C(F)(F)C(F)(F)F [6:1 Fluorotelomer alcohol]; settings: in DMSO
Method: as §1

[6] = compound: C=C(C)C(=O)OCC(F)(F)C(F)(F)C(F)(F)F [2,2,3,3,4,4,4-Heptafluorobutyl methacrylate]; settings: in DMSO
Method: as §1

Perfluoropinacol = compound: OC(C(F)(F)F)(C(F)(F)F)C(O)(C(F)(F)F)C(F)(F)F [Perfluoropinacol]; settings: in DMSO
Method: as §1

Test System	level (log10) [1]	level (log10) (Tetrafluorosuccinic acid; 6700 nM)	level (log10) (Tetrafluorosuccinic acid; 20000 nM)	level (log10) (Tetrafluorosuccinic acid; 60000 nM)	level (log10) ([2]; 6700 nM)	level (log10) ([2]; 20000 nM)	level (log10) ([3]; 6700 nM)	level (log10) ([3]; 20000 nM)	level (log10) ([3]; 60000 nM)	level (log10) [4]	level (log10) ([5]; 6700 nM)	level (log10) ([5]; 20000 nM)	level (log10) ([5]; 60000 nM)	level (log10) ([6]; 6700 nM)	level (log10) ([6]; 20000 nM)	level (log10) ([6]; 60000 nM)	level (log10) (Perfluoropinacol; 6700 nM)	level (log10) (Perfluoropinacol; 20000 nM)
KF3CT:CXCL9/MIG	0.0045 ± 0.0078	-0.011 ± 0.014	-0.011 ± 0.0099	-0.017 ± 0.0014	0.0085 ± 0.0064	0.009 ± 0.0057	0.0025 ± 0.011	0.0085 ± 0.011	0.008 ± 0.0085	-0.018 ± 0.0057	-0.0025 ± 0.019	-0.003 ± 0.016	0.0025 ± 0.0021	0.009	0 ± 0.0042	0.0005 ± 0.011	0.002 ± 0.0028	-0.004 ± 0.0071
CASM3C:CXCL9/MIG	0.0025 ± 0.026	-0.006 ± 0.0099	-0.0135 ± 0.0021	0.014 ± 0.0085	-0.0295 ± 0.018	-0.0945 ± 0.077	0.0055 ± 0.043	-0.002 ± 0.04	0.0115 ± 0.1	-0.042 ± 0.0028	-0.003 ± 0.0014	-0.0085 ± 0.0021	-0.0305 ± 0.046	-0.001 ± 0.011	0.005 ± 0.0099	0.0195 ± 0.0021	-0.013 ± 0.02	-0.0335 ± 0.011
lMphg:IL-1alpha	-0.0045 ± 0.025	-0.016 ± 0.0057	-0.015 ± 0.025	-0.0035 ± 0.03	0.0035 ± 0.0035	0.0395 ± 0.04	-0.0255 ± 0.052	-0.041 ± 0.086	-0.03 ± 0.082	-0.0015 ± 0.03	0.007 ± 0.04	0.006 ± 0.061	0.001 ± 0.034	0.01 ± 0.0057	0.0245 ± 0.012	0.03 ± 0.034	0.103 ± 0.021	0.149 ± 0.067
3C:CD142/Tissue Factor	0.0035 ± 0.14	0.001 ± 0.042	0.0025 ± 0.0064	0.006 ± 0.023	-0.0775 ± 0.022	-0.356 ± 0.057	-0.04 ± 0.042	-0.0435 ± 0.0092	-0.07 ± 0.092	-0.054 ± 0.016	-0.007 ± 0.0014	0.004 ± 0.014	0.0005 ± 0.026	-0.012 ± 0.021	-0.017 ± 0.0014	0.001 ± 0.0099	-0.0805 ± 0.026	-0.158 ± 0.0035
CASM3C:IL-6	-0.015 ± 0.014	-0.0165 ± 0.015	-0.0295 ± 0.0078	-0.0015 ± 0.036	-0.006 ± 0.028	-0.068 ± 0.013	0.006 ± 0.014	-0.0145 ± 0.021	0.031 ± 0.017	-0.0335 ± 0.0021	-0.008 ± 0.025	-0.0165 ± 0.042	-0.0005 ± 0.0021	0.004 ± 0.031	0.0105 ± 0.028	0.022 ± 0.0071	-0.0045 ± 0.025	0.033 ± 0.0085
MyoF:bFGF	0.002 ± 0.018	0.0005 ± 0.0021	0.0095 ± 0.0078	-0.0045 ± 0.029	0.002 ± 0.0028	-0.0175 ± 0.00071	0.0045 ± 0.0035	-0.0035 ± 0.0078	0.0135 ± 0.0035	-0.034 ± 0.017	-0.001 ± 0.0014	0.0005 ± 0.013	0.006 ± 0.011	0.007 ± 0.0099	-0.01 ± 0.0085	0.007 ± 0.024	-0.0075 ± 0.012	-0.0225 ± 0.0092
lMphg:CCL2/MCP-1	0.0165 ± 0.019	-0.03 ± 0.016	-0.0195 ± 0.012	0.0005 ± 0.042	-0.047 ± 0.031	-0.27 ± 0.056	-0.005 ± 0.0099	-0.0025 ± 0.019	0.0125 ± 0.015	0.0035 ± 0.016	-0.016 ± 0.0028	-0.046 ± 0.023	-0.02 ± 0.0071	-0.0335 ± 0.028	-0.012 ± 0.0099	-0.0115 ± 0.028	0.0265 ± 0.028	-0.148 ± 0.0014
CASM3C:CXCL8/IL-8	-0.006 ± 0.011	-0.001 ± 0.0042	-0.0145 ± 0.018	-0.002 ± 0.016	-0.0045 ± 0.0021	-0.043 ± 0.0057	0.0095 ± 0.021	0.006 ± 0.016	0.0005 ± 0.052	-0.008 ± 0.0099	0.0005 ± 0.015	0.004 ± 0.018	0 ± 0.0014	0.0035 ± 0.012	-0.0085 ± 0.032	0.012 ± 0.024	0.004 ± 0.011	0.029
CASM3C:HLA-DR	-0.022 ± 0.018	-0.005 ± 0.0099	-0.0145 ± 0.013	0.0015 ± 0.0064	-0.018 ± 0.0042	-0.0365 ± 0.022	-0.0095 ± 0.0035	-0.0025 ± 0.033	0.002 ± 0.0057	-0.0215 ± 0.005	0.0095 ± 0.0064	0.0135 ± 0.0021	-0.0195 ± 0.035	-0.0035 ± 0.0078	0.0125 ± 0.0021	0.0135 ± 0.015	-0.0885 ± 0.042	-0.207
lMphg:sIL-10	-0.17 ± 0.013	-0.0085 ± 0.016	-0.0265 ± 0.097	0.0415 ± 0.11	0.0065 ± 0.071	-0.429 ± 0.093	-0.049 ± 0.045	-0.102 ± 0.0035	0.0335 ± 0.076	-0.027 ± 0.013	0.0065 ± 0.073	-0.0215 ± 0.013	-0.023 ± 0.0071	-0.0245 ± 0.028	-0.0155 ± 0.005	-0.0165 ± 0.0035	0.031 ± 0.017	-0.498 ± 0.24
MyoF:Collagen IV	0.0065 ± 0.0021	0.008	0.003 ± 0.0099	0.0115 ± 0.015	0.018 ± 0.1	0.534 ± 0.07	-0.021 ± 0.099	-0.0295 ± 0.11	-0.0075 ± 0.069	-0.0385 ± 0.029	-0.013 ± 0.0014	-0.0335 ± 0.016	0.012 ± 0.02	-0.0185 ± 0.019	0.004 ± 0.065	0.014 ± 0.075	0.0385 ± 0.005	0.165 ± 0.0028
CASM3C:CD106/VCAM-1	-0.0825 ± 0.015	0.0015 ± 0.0035	-0.008 ± 0.027	-0.0045 ± 0.0064	-0.0225 ± 0.012	-0.104 ± 0.028	-0.017 ± 0.03	-0.013 ± 0.024	0.0025 ± 0.047	-0.0895 ± 0.019	-0.0075 ± 0.026	-0.001 ± 0.024	-0.074 ± 0.034	0.0205 ± 0.013	-0.006 ± 0.04	0.001 ± 0.02	-0.028 ± 0.0042	-0.0385 ± 0.015
CASM3C:CCL2/MCP-1	-0.0125 ± 0.0021	-0.0005 ± 0.00071	-0.0165 ± 0.005	-0.0005 ± 0.025	0.039 ± 0.011	-0.017 ± 0.011	-0.0055 ± 0.013	-0.005 ± 0.0014	0.011 ± 0.014	-0.0175 ± 0.016	-0.015 ± 0.0071	-0.0125 ± 0.0078	-0.034 ± 0.034	0.005 ± 0.013	0.0045 ± 0.0035	0.013 ± 0.0071	0.0185 ± 0.013	0.096 ± 0.017
HDF3CGF:MMP-1	0.034 ± 0.0014	0.0295 ± 0.015	0.0315 ± 0.021	0.0195 ± 0.022	-0.0195 ± 0.0092	-0.0935 ± 0.0078	0.0195 ± 0.012	0.013 ± 0.0042	0.018	-0.0315 ± 0.044	0.002 ± 0.0099	0.008 ± 0.0071	-0.0355 ± 0.07	0 ± 0.023	0.0015 ± 0.0064	-0.0005 ± 0.016	0.024 ± 0.023	0.017 ± 0.014
3C:CD106/VCAM-1	-0.035 ± 0.061	-0.015 ± 0.014	-0.015 ± 0.011	-0.0105 ± 0.018	-0.027 ± 0.0071	-0.089 ± 0.0099	-0.03 ± 0.021	-0.028 ± 0.035	-0.018 ± 0.02	-0.021	0.006 ± 0.0071	0.013 ± 0.013	0.011 ± 0.021	0.0145 ± 0.029	0.007 ± 0.016	0.017 ± 0.011	-0.006 ± 0.02	-0.0385 ± 0.018
